Values of other authors in US6685969B2, “Treatment for ectoparasites” (Schering-Plough HealthCare Products, Inc., priority 2001, dated 2004).

Tested on: Head Lice
Conditions: comparison of published results

SMILES: CC1(C)C(C=C(Cl)Cl)C1C(=O)OCc1cccc(Oc2ccccc2)c1 (stereo not shown) [Permethrin]
- Evidence of efficacy among topical pesticidal treatments: sufficient evidence of efficacy
